Activity calls are given as the source filed them. No cut-off for these calls is given here.
Tests used:
[1] = molecular target: T1, Farnesyl pyrophosphate synthase (Rattus norvegicus, UniProt P05369); test: Binding affinity to rat FPPS expressed in Escherichia coli BL21 (DE3) by isothermal titration calorimetry
T1 sequence (P05369 whole entry): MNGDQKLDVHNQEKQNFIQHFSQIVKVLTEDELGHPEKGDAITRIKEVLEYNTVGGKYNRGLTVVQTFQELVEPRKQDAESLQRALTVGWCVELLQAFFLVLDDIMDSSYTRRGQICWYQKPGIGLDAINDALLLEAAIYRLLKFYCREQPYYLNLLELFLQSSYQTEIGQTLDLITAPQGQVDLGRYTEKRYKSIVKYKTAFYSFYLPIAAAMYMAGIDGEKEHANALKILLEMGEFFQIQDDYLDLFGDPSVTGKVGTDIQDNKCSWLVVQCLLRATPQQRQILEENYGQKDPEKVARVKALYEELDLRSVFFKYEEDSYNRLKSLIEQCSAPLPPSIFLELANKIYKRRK

[2] = molecular target: T2, Farnesyl pyrophosphate synthase (Rattus norvegicus) (UniProt P05369); test: Inhibition of rat FPPS expressed in Escherichia coli BL21 (DE3) using GPP and IPP as substrate at 10 uM incubated for 10 mins by microplate reader
T2 sequence (whole entry): T1 sequence (P05369 whole entry)

HCT-116 [3] = test: Induction of apoptosis in human HCT116 cells assessed as early apoptotic cells at 75 uM after 48 hrs by Annexin V/FITC staining based flow cytometric analysis (reference value: 1.26%); type: functional
MDA-MB-231 = test: Cytotoxicity against FPPS-negative human MDA-MB-231 cells assessed as reduction in cell viability measured after 48 hrs by MTT assay; type: functional, cell-based; details: MDA-MB-231, 48 h
HCT-116 [4] = test: Growth inhibition of human HCT116 cells at 100 uM incubated for 48 hrs by MTT assay relative to control; type: functional; details: read-out: GI
LoVo [5] = test: Induction of apoptosis in human Lovo cells assessed as viable cells at 50 uM after 48 hrs by Annexin V/FITC staining based flow cytometric analysis (reference value: 91.1%); type: functional; details: read-out: Activity
HCT-116 [6] = test: Cytotoxicity against FPPS-positive human HCT116 cells assessed as reduction in cell viability measured after 48 hrs by MTT assay; details: HCT-116, 48 h
LoVo [7] = test: Induction of ROS generation in human Lovo cells assessed as intracellular ROS level at 75 uM by DCFH-DA staining-based flow cytometric analysis (reference value: 9.18%); type: functional
LoVo [8] = test: Cytotoxicity against FPPS-positive human Lovo cells assessed as reduction in cell viability measured after 48 hrs by MTT assay
HCT-116 [9] = test: Induction of apoptosis in human HCT116 cells assessed as necrotic cells at 75 uM after 48 hrs by Annexin V/FITC staining based flow cytometric analysis (reference value: 1.12%); type: functional
HCT-116 [10] = test: Induction of apoptosis in human HCT116 cells assessed as early apoptotic cells at 50 uM after 48 hrs by Annexin V/FITC staining based flow cytometric analysis (reference value: 1.26%); type: functional
LoVo [11] = test: Induction of apoptosis in human Lovo cells assessed as necrotic cells at 25 uM after 48 hrs by Annexin V/FITC staining based flow cytometric analysis (reference value: 0.321%); type: functional
HCT-116 [12] = test: Induction of ROS generation in human HCT116 cells assessed as intracellular ROS level at 25 uM by DCFH-DA staining-based flow cytometric analysis (reference value: 8.91%); type: functional
LoVo [13] = test: Induction of apoptosis in human Lovo cells assessed as late apoptotic cells at 75 uM after 48 hrs by Annexin V/FITC staining based flow cytometric analysis (reference value: 1.84%); type: functional
HCT-116 [14] = test: Induction of apoptosis in human HCT116 cells assessed as viable cells at 75 uM after 48 hrs by Annexin V/FITC staining based flow cytometric analysis (reference value: 92%); type: functional; details: read-out: Activity
LoVo [15] = test: Reduction in Ras protein expression in FPPS-positive human LoVo cells upto 75 uM measured after 48 hrs by Western blot analysis; type: functional; details: dose microM <=75, time 48.0 hrs
LoVo [16] = test: Induction of apoptosis in human Lovo cells assessed as late apoptotic cells at 25 uM after 48 hrs by Annexin V/FITC staining based flow cytometric analysis (reference value: 1.84%); type: functional
HCT-116 [17] = test: Reduction in Ras protein expression in FPPS-positive human HCT116 cells upto 75 uM measured after 48 hrs by Western blot analysis; type: functional, cell-based; details: dose microM <=75, time 48.0 hrs
HCT-116 [18] = test: Induction of apoptosis in human HCT116 cells assessed as late apoptotic cells at 75 uM after 48 hrs by Annexin V/FITC staining based flow cytometric analysis (reference value: 5.63%); type: functional
LoVo [19] = test: Induction of apoptosis in human Lovo cells assessed as early apoptotic cells at 25 uM after 48 hrs by Annexin V/FITC staining based flow cytometric analysis (reference value: 6.76%); type: functional
HCT-116 [20] = test: Induction of ROS generation in human HCT116 cells assessed as intracellular ROS level at 50 uM by DCFH-DA staining-based flow cytometric analysis (reference value: 8.91%); type: functional
LoVo [21] = test: Induction of apoptosis in human Lovo cells assessed as early apoptotic cells at 75 uM after 48 hrs by Annexin V/FITC staining based flow cytometric analysis (reference value: 6.76%); type: functional
LoVo [22] = test: Induction of apoptosis in human Lovo cells assessed as viable cells at 25 uM after 48 hrs by Annexin V/FITC staining based flow cytometric analysis (reference value: 91.1%); type: functional; details: read-out: Activity
LoVo [23] = test: Induction of apoptosis in human Lovo cells assessed as late apoptotic cells at 50 uM after 48 hrs by Annexin V/FITC staining based flow cytometric analysis (reference value: 1.84%); type: functional
HCT-116 [24] = test: Induction of apoptosis in human HCT116 cells assessed as early apoptotic cells at 25 uM after 48 hrs by Annexin V/FITC staining based flow cytometric analysis (reference value: 1.26%); type: functional
LoVo [25] = test: Induction of apoptosis in human Lovo cells assessed as viable cells at 75 uM after 48 hrs by Annexin V/FITC staining based flow cytometric analysis (reference value: 91.1%); type: functional; details: read-out: Activity
HCT-116 [26] = test: Induction of apoptosis in human HCT116 cells assessed as late apoptotic cells at 50 uM after 48 hrs by Annexin V/FITC staining based flow cytometric analysis (reference value: 5.63%); type: functional
MDA-MB-468 = test: Growth inhibition of human MDA-MB-468 cells at 100 uM incubated for 48 hrs by MTT assay relative to control; details: MDA-MB-468, 48 h, read-out: GI
LoVo [27] = test: Induction of ROS generation in human Lovo cells assessed as intracellular ROS level at 25 uM by DCFH-DA staining-based flow cytometric analysis (reference value: 9.18%); type: functional
LoVo [28] = test: Induction of apoptosis in human Lovo cells assessed as necrotic cells at 75 uM after 48 hrs by Annexin V/FITC staining based flow cytometric analysis (reference value: 0.321%); type: functional
LoVo [29] = test: Induction of ROS generation in human Lovo cells assessed as intracellular ROS level at […] 50 by DCFH-DA staining-based flow cytometric analysis (reference value: 9.18%); type: functional; details: dose 50 µM
[30] = Reduction in Ras protein expression in FPPS-positive human LoVo cells assessed as mean fluorescence intensity upto 75 uM measured after 48 hrs by Western blot analysis relative to untreated control; type: functional; details: dose microM <=75
HCT-116 [31] = test: Induction of apoptosis in human HCT116 cells assessed as viable cells at 50 uM after 48 hrs by Annexin V/FITC staining based flow cytometric analysis (reference value: 92%); type: functional; details: read-out: Activity
LoVo [32] = test: Induction of apoptosis in human Lovo cells assessed as necrotic cells at 50 uM after 48 hrs by Annexin V/FITC staining based flow cytometric analysis (reference value: 0.321%); type: functional
[33] = Reduction in Ras protein expression in FPPS-positive human HCT116 cells assessed as mean fluorescence intensity upto 75 uM measured after 48 hrs by Western blot analysis relative to untreated control; type: functional, HCT-116; details: dose microM <=75
LoVo [34] = test: Cytotoxicity against FPPS-positive human Lovo cells assessed as cell viability at 100 uM in presence of GGOH measured after 48 hrs by MTT assay; type: functional; details: read-out: Activity
LoVo [35] = test: Induction of apoptosis in human Lovo cells assessed as early apoptotic cells at 50 uM after 48 hrs by Annexin V/FITC staining based flow cytometric analysis (reference value: 6.76%); type: functional
HCT-116 [36] = test: Induction of apoptosis in human HCT116 cells assessed as necrotic cells at 50 uM after 48 hrs by Annexin V/FITC staining based flow cytometric analysis (reference value: 1.12%); type: functional
HCT-116 [37] = test: Induction of ROS generation in human HCT116 cells assessed as intracellular ROS level at 75 uM by DCFH-DA staining-based flow cytometric analysis (reference value: 8.91%); type: functional
HCT-116 [38] = test: Cytotoxicity against FPPS-positive human HCT116 cells assessed as cell viability at 100 uM in presence of GGOH measured after 48 hrs by MTT assay; type: functional; details: read-out: Activity
HCT-116 [39] = test: Induction of apoptosis in human HCT116 cells assessed as late apoptotic cells at 25 uM after 48 hrs by Annexin V/FITC staining based flow cytometric analysis (reference value: 5.63%); type: functional
HCT-116 [40] = test: Cytotoxicity against FPPS-positive human HCT116 cells assessed as cell viability in presence of GGOH measured after 48 hrs by MTT assay; type: functional, cell-based; details: HCT-116, 48 h
LoVo [41] = test: Cytotoxicity against FPPS-positive human Lovo cells assessed as cell viability in presence of GGOH measured after 48 hrs by MTT assay; type: functional, cell-based
LoVo [42] = test: Cytotoxicity against FPPS-positive human Lovo cells assessed as cell viability at 100 uM in presence of FOH measured after 48 hrs by MTT assay; type: functional; details: read-out: Activity
HCT-116 [43] = test: Cytotoxicity against FPPS-positive human HCT116 cells assessed as cell viability in presence of FOH measured after 48 hrs by MTT assay; type: functional, cell-based; details: HCT-116, 48 h
LoVo [44] = test: Growth inhibition of human LoVo cells at 100 uM incubated for 48 hrs by MTT assay relative to control; type: functional; details: read-out: GI
HCT-116 [45] = test: Induction of apoptosis in human HCT116 cells assessed as viable cells at 25 uM after 48 hrs by Annexin V/FITC staining based flow cytometric analysis (reference value: 92%); type: functional; details: read-out: Activity
HCT-116 [46] = test: Induction of apoptosis in human HCT116 cells assessed as necrotic cells at 25 uM after 48 hrs by Annexin V/FITC staining based flow cytometric analysis (reference value: 1.12%); type: functional
LoVo [47] = test: Cytotoxicity against FPPS-positive human Lovo cells assessed as cell viability in presence of FOH measured after 48 hrs by MTT assay; type: functional, cell-based
HCT-116 [48] = test: Cytotoxicity against FPPS-positive human HCT116 cells assessed as cell viability at 100 uM in presence of FOH measured after 48 hrs by MTT assay; type: functional; details: read-out: Activity

CC(=O)N[C@H]1[C@H](OCc2ccccc2)O[C@H](CO)[C@@H](O)[C@@H]1O
Kd [1]: 48.1 µM | inhibition [2]: 29.9%

CNS(=O)(=O)c1cn(CC(=O)Nc2cc(C)cc(C)c2)cc1S(=O)(=O)NC
Kd [1]: 442 µM | inhibition [2]: 23.4%

COc1ccccc1CN(CCS(=O)(=O)N1CCNCC1)S(=O)(=O)c1ccc(C)cc1
Activity (HCT-116 [3]): 25.8% | IC50 (MDA-MB-231): > 100 µM | inhibition of growth at 100 µM (HCT-116 [4]): 80% | viability at 50 µM (LoVo [5]): 52.3% | IC50 (HCT-116 [6]): 51.8 µM | Activity (LoVo [7]): 74.6% | IC50 (LoVo [8]): 43.6 µM | Activity (HCT-116 [9]): 3.86% | Activity (HCT-116 [10]): 16.6% | Activity (LoVo [11]): 2.04% | Activity (HCT-116 [12]): 18.7% | Activity (LoVo [13]): 26.5% | viability at 75 µM (HCT-116 [14]): 49.9% | inhibition (LoVo [15]): Active | Activity (LoVo [16]): 4.29% | Kd [1]: 14.3 µM | inhibition (HCT-116 [17]): Active | Activity (HCT-116 [18]): 20.4% | Activity (LoVo [19]): 17.8% | Activity (HCT-116 [20]): 30.9% | Activity (LoVo [21]): 32.7% | viability at 25 µM (LoVo [22]): 75.9% | Activity (LoVo [23]): 21.2% | Activity (HCT-116 [24]): 11.99% | viability at 75 µM (LoVo [25]): 38.1% | Activity (HCT-116 [26]): 14.6% | inhibition of growth at 100 µM (MDA-MB-468): 80% | Activity (LoVo [27]): 19.6% | Activity (LoVo [28]): 2.71% | Activity (LoVo [29]): 48% | fold change (FC) [30]: 8.13 | viability at 50 µM (HCT-116 [31]): 67.5% | Activity (LoVo [32]): 1.84% | inhibition [2]: 24% | fold change (FC) [33]: 6.82 | viability at 100 µM (LoVo [34]): 14.8% | Activity (LoVo [35]): 24.6% | Activity (HCT-116 [36]): 1.28% | Activity (HCT-116 [37]): 60.8% | viability at 100 µM (HCT-116 [38]): 27.9% | Activity (HCT-116 [39]): 5.2% | IC50 (HCT-116 [40]): 73.9 µM | IC50 (LoVo [41]): 51 µM | viability at 100 µM (LoVo [42]): 19% | IC50 (HCT-116 [43]): 81.1 µM | inhibition of growth at 100 µM (LoVo [44]): 80% | viability at 25 µM (HCT-116 [45]): 80.9% | Activity (HCT-116 [46]): 1.98% | IC50 (LoVo [47]): 55.6 µM | viability at 100 µM (HCT-116 [48]): 28.5%
